Source: BigSolDB 2.1

Cc1ncc(COP(=O)(O)O)c(C=O)c1O.O
solubility (mole fraction)
Conditions	278.15 K	283.15 K	288.15 K	293.15 K	298.15 K	303.15 K	308.15 K	313.15 K	318.15 K
in acetone	4.8e-07	6.8e-07	8.7e-07	1.26e-06	1.74e-06	2.42e-06	3.19e-06	4.06e-06	5.02e-06
in ethanol	2.81e-06	3.12e-06	3.5e-06	3.95e-06	4.18e-06	4.86e-06	6e-06	7.22e-06	8.59e-06
in isopropanol	2.35e-06	2.45e-06	2.77e-06	3.2e-06	3.73e-06	4.59e-06	5.66e-06	7.04e-06	9.17e-06
in methanol	4.5e-06	5.92e-06	8.99e-06	1.33e-05	1.83e-05	2.39e-05	3.18e-05	4.17e-05	5.38e-05
in water	0.000216	0.000247	0.000284	0.000333	0.000388	0.000465	0.000558	0.00066	0.000803
